Reference: ChEMBL document CHEMBL1147207 (Eur J Med Chem, 2007)
The source made the active and inactive calls. The calls are words filed in the database; no cut-off is given here. Bridge positions count the residues as written; N and C are the ends. Square brackets hold non-standard residues; d marks the D form. Peptide text beside a SMILES is read from it. Orn = NCCC[C@H](N)C(=O)O; Aib = CC(C)(N)C(=O)O; Mpa = O=C(O)CCS

Experiments:
[1] = biological target: Vasopressin V1a receptor (Rattus norvegicus) (UniProt P30560); experiment: Agonist activity in phenoxybenzamine-treated rat up to 0.16 mg/kg by Pressor assay
Chain of Vasopressin V1a receptor (Rattus norvegicus) (P30560 whole entry, looked up): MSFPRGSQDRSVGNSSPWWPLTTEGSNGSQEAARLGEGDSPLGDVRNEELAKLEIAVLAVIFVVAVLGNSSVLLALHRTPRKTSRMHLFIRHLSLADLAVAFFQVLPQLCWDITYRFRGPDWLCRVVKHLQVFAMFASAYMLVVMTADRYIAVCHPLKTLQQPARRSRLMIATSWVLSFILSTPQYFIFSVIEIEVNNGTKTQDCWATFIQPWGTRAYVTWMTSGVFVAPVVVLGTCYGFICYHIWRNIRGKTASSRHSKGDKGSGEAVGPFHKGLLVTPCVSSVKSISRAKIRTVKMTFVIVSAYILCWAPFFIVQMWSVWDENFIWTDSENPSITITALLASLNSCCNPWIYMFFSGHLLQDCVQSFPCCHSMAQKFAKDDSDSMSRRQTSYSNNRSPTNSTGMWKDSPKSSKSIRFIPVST

[2] = biological target: T1, Oxytocin receptor (Rattus norvegicus) (UniProt P70536); experiment: Agonist activity in rat uterus by uterotonic assay; format: functional, tissue-based
T1 sequence (whole entry): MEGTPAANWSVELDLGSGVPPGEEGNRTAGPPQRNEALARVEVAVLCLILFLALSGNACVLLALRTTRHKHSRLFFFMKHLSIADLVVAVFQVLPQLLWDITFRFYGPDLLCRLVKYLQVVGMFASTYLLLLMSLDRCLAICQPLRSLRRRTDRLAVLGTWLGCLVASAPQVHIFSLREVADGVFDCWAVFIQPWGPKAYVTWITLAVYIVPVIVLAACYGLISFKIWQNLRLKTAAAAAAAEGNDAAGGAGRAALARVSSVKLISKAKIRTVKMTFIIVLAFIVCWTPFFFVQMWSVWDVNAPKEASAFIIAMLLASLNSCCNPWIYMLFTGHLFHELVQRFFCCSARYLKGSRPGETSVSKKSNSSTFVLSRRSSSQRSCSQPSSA

Oxytocin receptor [3] = biological target: T2, Oxytocin receptor (Rattus norvegicus, UniProt P70536); experiment: Antagonist activity in rat uterus by uterotonic assay; format: functional, tissue-based; conditions: read-out: pA2 (converted)
T2 sequence (P70536 whole entry): T1 sequence (whole entry)

Oxytocin receptor [4] = biological target: T3, Oxytocin receptor (Homo sapiens, UniProt P30559); experiment: Displacement of [3H]OT from human OT receptor expressed in HEK cells; format: cell-based, HEK293
T3 sequence (P30559 whole entry): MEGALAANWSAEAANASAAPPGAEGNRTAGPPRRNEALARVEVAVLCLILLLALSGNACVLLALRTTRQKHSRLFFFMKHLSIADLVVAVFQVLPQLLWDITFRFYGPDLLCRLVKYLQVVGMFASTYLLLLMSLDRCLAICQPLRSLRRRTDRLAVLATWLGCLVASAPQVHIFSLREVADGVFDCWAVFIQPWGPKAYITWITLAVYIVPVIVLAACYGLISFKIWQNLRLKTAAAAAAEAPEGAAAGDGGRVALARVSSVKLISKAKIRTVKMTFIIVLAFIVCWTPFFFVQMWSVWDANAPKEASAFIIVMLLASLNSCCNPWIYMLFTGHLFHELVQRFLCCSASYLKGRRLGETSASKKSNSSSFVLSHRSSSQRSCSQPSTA

Compound | Activity [1] | Activity [2] | Kb (Oxytocin receptor [3]) | IC50 (Oxytocin receptor [4])
CCOc1ccc(CC2NC(=O)CCSSC[C@@H](C(=O)N[C@H](C(=O)N[C@@H](CC(C)C)C(=O)NCC(N)=O)C(C)(C)C)NC(=O)[C@H](CC(N)=O)NC(=O)[C@H](CCC(N)=O)NC(=O)[C@H]([C@@H](C)CC)NC2=O)cc1 (stereo in doubt) | inactive | 0 IU/mg | 11.7 nM | 1000 nM
CC[C@H](C)[C@@H]1NC(=O)[C@H](Cc2ccc(O)cc2)NC(=O)[C@@H](N)CSSC[C@@H](C(=O)NC(C)(C)C(=O)N[C@@H](CC(C)C)C(=O)NCC(N)=O)NC(=O)[C@H](CC(N)=O)NC(=O)[C@H](CCC(N)=O)NC1=O (H-CYIQNC[Aib]LG-NH2; disulfide 1-6) | inactive | 1.7 IU/mg |  | 75 nM
CCOc1ccc(C[C@H]2NC(=O)CCSSC[C@@H](C(=O)NC(C)(C)C(=O)N[C@@H](CC(C)C)C(=O)N3Cc4ccccc4C[C@@H]3C(N)=O)NC(=O)[C@H](CC(N)=O)NC(=O)[C@H](CCC(N)=O)NC(=O)[C@H]([C@@H](C)CC)NC2=O)cc1 |  |  | 13.5 nM | 55 nM
CC[C@H](C)[C@@H]1NC(=O)[C@H](Cc2ccc(O)cc2)NC(=O)[C@@H](N)CSSC[C@@H](C(=O)N[C@@H](C(=O)N[C@@H](CC(C)C)C(=O)NCC(N)=O)C(C)(C)C)NC(=O)[C@H](CC(N)=O)NC(=O)[C@H](CCC(N)=O)NC1=O | inactive | 1.8 IU/mg |  | 
CCOc1ccc(CC2NC(=O)CCSSC[C@@H](C(=O)N3Cc4ccccc4C[C@@H]3C(=O)N[C@@H](CC(C)C)C(=O)N3Cc4ccccc4C[C@@H]3C(N)=O)NC(=O)[C@H](CC(N)=O)NC(=O)[C@H](CCC(N)=O)NC(=O)[C@H]([C@@H](C)CC)NC2=O)cc1 (stereo in doubt) | inactive | 0 IU/mg | 8.51 nM | 25 nM
CCOc1ccc(CC2NC(=O)CCSSC[C@@H](C(=O)NC(C)(C)C(=O)N[C@@H](CC(C)C)C(=O)NCC(N)=O)NC(=O)[C@H](CC(N)=O)NC(=O)[C@H](CCC(N)=O)NC(=O)[C@H]([C@@H](C)CC)NC2=O)cc1 (stereo in doubt) | inactive | 0 IU/mg | 17.8 nM | 485 nM
CCOc1ccc(CC2NC(=O)CCSSC[C@@H](C(=O)NC(C)(C)C(=O)N[C@@H](CC(C)C)C(=O)N3CCCC[C@@H]3C(N)=O)NC(=O)[C@H](CC(N)=O)NC(=O)[C@H](CCC(N)=O)NC(=O)[C@H]([C@@H](C)CC)NC2=O)cc1 (stereo in doubt) | inactive | 0 IU/mg |  | 
CC[C@H](C)[C@@H]1NC(=O)[C@H](Cc2ccc(O)cc2)NC(=O)[C@@H](N)CSSC[C@@H](C(=O)N2CCC[C@H]2C(=O)N[C@@H](CC(C)C)C(=O)NCC(N)=O)NC(=O)[C@H](CC(N)=O)NC(=O)[C@H](CCC(N)=O)NC1=O |  | 546 IU/mg |  | 
CC[C@H](C)[C@@H]1NC(=O)[C@H]2Cc3ccccc3CN2C(=O)CCSSC[C@@H](C(=O)NC(C)(C)C(=O)N[C@@H](CC(C)C)C(=O)NCC(N)=O)NC(=O)[C@H](CC(N)=O)NC(=O)[C@H](CCC(N)=O)NC1=O | inactive | 0 IU/mg | 123 nM | 8500 nM
CCOc1ccc(C[C@H]2NC(=O)[C@@H](N)CSSC[C@@H](C(=O)N3CCC[C@H]3C(=O)N[C@@H](CC(C)C)C(=O)NCC(N)=O)NC(=O)[C@H](CC(N)=O)NC(=O)[C@H](CCC(N)=O)NC(=O)[C@H]([C@@H](C)CC)NC2=O)cc1 |  | 0 IU/mg | 43.7 nM | 
CC(C)C[C@H](NC(=O)[C@@H](NC(=O)[C@@H]1CSSC[C@H](N)C(=O)N[C@@H](Cc2ccc(O)cc2)C(=O)N[C@@H](C(C)(C)C)C(=O)N[C@@H](CCC(N)=O)C(=O)N[C@@H](CC(N)=O)C(=O)N1)C(C)(C)C)C(=O)NCC(N)=O |  |  | 741 nM | 51700 nM
CC[C@H](C)[C@@H]1NC(=O)[C@H](Cc2ccc(O)cc2)NC(=O)[C@@H](N)CSSC[C@@H](C(=O)N2CCCC[C@H]2C(=O)N[C@@H](CC(C)C)C(=O)NCC(N)=O)NC(=O)[C@H](CC(N)=O)NC(=O)[C@H](CCC(N)=O)NC1=O | inactive | 79.8 IU/mg |  | 7 nM
CC[C@H](C)[C@@H]1NC(=O)[C@H](Cc2ccc(O)cc2)NC(=O)CCSSC[C@@H](C(=O)N2Cc3ccccc3C[C@@H]2C(=O)N[C@@H](CC(C)C)C(=O)NCC(N)=O)NC(=O)[C@H](CC(N)=O)NC(=O)[C@H](CCC(N)=O)NC1=O | inactive | 1 IU/mg | 10 nM | 380 nM
CCOc1ccc(CC2NC(=O)CCSSC[C@@H](C(=O)N[C@H](C(=O)N[C@@H](CC(C)C)C(=O)NCC(N)=O)C(C)(C)C)NC(=O)[C@H](CC(N)=O)NC(=O)[C@H](CCC(N)=O)NC(=O)[C@H](C(C)(C)C)NC2=O)cc1 (stereo in doubt) | inactive | 0 IU/mg | 355 nM | 7850 nM
CCOc1ccc(CC2NC(=O)CCSSC[C@@H](C(=O)N3CCCC[C@H]3C(=O)N[C@@H](CC(C)C)C(=O)NCC(N)=O)NC(=O)[C@H](CC(N)=O)NC(=O)[C@H](CCC(N)=O)NC(=O)[C@H]([C@@H](C)CC)NC2=O)cc1 (stereo in doubt) | inactive | 0 IU/mg | 12.6 nM | 40 nM
CCc1ccc(C[C@@H]2NC(=O)CCSSC[C@@H](C(=O)NC(C)(C)C(=O)N[C@@H](CC(C)C)C(=O)NCC(N)=O)NC(=O)[C@H](CC(N)=O)NC(=O)[C@H](CCC(N)=O)NC(=O)[C@H]([C@@H](C)CC)NC2=O)cc1 | inactive | 0 IU/mg | 39.8 nM | 
CC[C@H](C)[C@@H]1NC(=O)[C@H](Cc2ccc(O)cc2)NC(=O)[C@@H](N)CSSC[C@@H](C(=O)N[C@H](C(=O)N[C@@H](CC(C)C)C(=O)NCC(N)=O)C(C)(C)C)NC(=O)[C@H](CC(N)=O)NC(=O)[C@H](CCC(N)=O)NC1=O |  |  |  | 1380 nM
CC(C)C[C@H](NC(=O)[C@H](NC(=O)[C@@H]1CSSC[C@H](N)C(=O)N[C@@H](Cc2ccc(O)cc2)C(=O)N[C@@H](C(C)(C)C)C(=O)N[C@@H](CCC(N)=O)C(=O)N[C@@H](CC(N)=O)C(=O)N1)C(C)(C)C)C(=O)NCC(N)=O | inactive | 0 IU/mg |  | 
CCOc1ccc(CC2NC(=O)CCSSC[C@@H](C(=O)N3Cc4ccccc4C[C@@H]3C(=O)N[C@@H](CC(C)C)C(=O)NC(C)(C)C(N)=O)NC(=O)[C@H](CC(N)=O)NC(=O)[C@H](CCC(N)=O)NC(=O)[C@H]([C@@H](C)CC)NC2=O)cc1 (stereo in doubt) | inactive | 0 IU/mg | 4.9 nM | 80 nM
CC[C@H](C)[C@@H]1NC(=O)[C@H](Cc2ccc(O)cc2)NC(=O)CCSSC[C@H](C(=O)N2CCC[C@H]2C(=O)N[C@@H](CC(C)C)C(=O)NCC(N)=O)NC(=O)[C@H](CC(N)=O)NC(=O)[C@H](CCC(N)=O)NC1=O |  | 803 IU/mg |  | 
CCOc1ccc(C[C@H]2NC(=O)CCSSC[C@@H](C(=O)N3CCC[C@H]3C(=O)N[C@@H](CCCN)C(=O)NCC(N)=O)NC(=O)[C@H](CC(N)=O)NC(=O)[C@H]([C@@H](C)O)NC(=O)[C@H]([C@@H](C)CC)NC2=O)cc1 [ATOSIBAN] ([Mpa][dY](Et)ITNCP[Orn]G-NH2; disulfide 1-6) |  | 0 IU/mg | 5.13 nM | 
